Measurements taken from patent US20060063711A1, “Use of sglt homolog” (priority 2002, published 2006).

Key:
[1] = target: T1, mouse SGLT homolog (mSGLTh) (Mus musculus, UniProt Q8VDT1); experiment: α-methyl glucose uptake in CHO cells expressing mSGLTh; assay type: cell-based; details: for Uptake of α-Methyl Glucose (% based on Control Group): mSGLTh CHO cells, control = NMDG without NaCl
T1 construct: expressed in transfected cells; host or cells: CHO cells
T1 sequence (Q8VDT1 8-685 limits assumed): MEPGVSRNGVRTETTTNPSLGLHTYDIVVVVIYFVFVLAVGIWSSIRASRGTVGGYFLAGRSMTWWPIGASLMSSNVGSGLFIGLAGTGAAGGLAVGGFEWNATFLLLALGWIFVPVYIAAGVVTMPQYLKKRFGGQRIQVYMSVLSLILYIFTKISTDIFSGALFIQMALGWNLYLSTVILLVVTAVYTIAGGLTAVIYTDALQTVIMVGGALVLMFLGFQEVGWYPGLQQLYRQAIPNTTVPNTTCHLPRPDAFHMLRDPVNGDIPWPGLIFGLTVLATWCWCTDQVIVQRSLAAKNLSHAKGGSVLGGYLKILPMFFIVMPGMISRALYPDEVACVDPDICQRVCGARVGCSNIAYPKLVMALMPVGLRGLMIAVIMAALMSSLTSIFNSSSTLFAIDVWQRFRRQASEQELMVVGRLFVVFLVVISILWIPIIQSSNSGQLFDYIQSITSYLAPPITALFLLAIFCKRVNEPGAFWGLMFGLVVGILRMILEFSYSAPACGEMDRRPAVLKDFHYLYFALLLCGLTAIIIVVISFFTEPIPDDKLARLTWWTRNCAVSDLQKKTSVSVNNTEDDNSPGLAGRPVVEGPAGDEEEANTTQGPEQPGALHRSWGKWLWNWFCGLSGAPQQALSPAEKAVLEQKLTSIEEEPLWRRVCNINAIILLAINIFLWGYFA
Experimental: In accordance with the procedures described in Example 4 of WO 02/53738, the CHO cell lines expressing the human SGLT homolog (hSGLTh), mouse SGLT homolog (mSGLTh), rat SGLT homolog (rSGLTh), human SGLT1 (hSGLT1) and human SGLT2 (hSGLT2) were prepared, respectively, and used for experiments. The experimental uptake of α-methyl glucose, which is a glucose analog selectively taken up into the cells by SGLT, was carried out according to the method described in Am. J. Physiol., 270: G833-G843, 1996 and J. Clin. Invest., 93: 397-404, 1994. The cells were plated on 100 μl of DMEM containing 10% FBS charged in a 96-well plate in a cell density of 1×10^5 cells/well, followed by culturing overnight at 37° C. The cells were washed 3 times with 150 μl of a buffer solution (125 mM N-Methyl-D-Glucamine, 1.2 mM KH2PO4, 2.5 mM CaCl2, 1.2 mM MgSO4, 4 mM Glutamine, 10 mM HEPES (pH 7.2), 0.1 mg/ml BSA) and cultured for an hour in the same buffer solution to remove the remaining glucose. The buffer solution was removed and replaced with 90 μl of the same buffer solution or the buffer solution containing NaCl or NaCl+Phlorizin (Sigma) in place of N-Methyl-D-Glucamine (NMDG). After one-hour incubation with 10 μl of 1 mM α-methyl glucose (containing 0.02 μCi of [^14C]-α-Methyl Glucose (Amersham Pharmacia Biotech)) per well, the cells were washed 3 times with 200 μl of chilled PBS buffer. The radioactivity of ^14C taken up into the cells was counted with 100 μl of a liquid scintillator added per well.

hamster small intestine = experiment: glucose uptake in small intestine by the organ culture system; details: hamster jejunal slices, NaCl + 30 μM Phlorizin, 10 minutes at 37° C.
Experimental: The glucose uptake level was determined by the intestinal organ culture system in accordance with the procedures described in Peptides, 19: 1249-1253, 1998 and J. Agric. Food Chem., 48: 5618-5623, 2000. The carotid was cut in mice, rats, guinea pigs and hamsters under ether anesthesia to put them to death. The jejunal region was excised, mesenteric fats were removed, the tract was dissected and the contents were washed and cut in 1 cm length. The jejunal slices were washed 3 times with a buffer solution (125 mM N-Methyl-D-Glucamine (NMDG), 1.2 mM KH2PO4, 2.5 mM CaCl2, 1.2 mM MgSO4, 4 mM Glutamine, 10 mM HEPES (pH 7.2), 0.1 mg/ml BSA) and then transferred to a 48-well plate by one slice/well. […]. The jejunal slices were transferred to a mini-vial for liquid scintillation counting. After 500 μl of tissue solubilizer Solvable (Perkin Elmer LifeSciences) was added thereto, the mixture was treated at 50° C. for 2 hours to solubilize the tissues. After 5 ml of liquid scintillator Ultima Gold-XR (Perkin Elmer LifeSciences) was added, ^14C and ^3H taken up into the jejunal slices were counted. […]

## O=C(CCc1ccc(O)cc1)c1c(O)cc(O)cc1O[C@@H]1O[C@H](CO)[C@@H](O)[C@H](O)[C@H]1O [phlorizin]
[1]; NaCl + 15 μM phlorizin
  Uptake of α-Methyl Glucose (% based on Control Group): 521 ± 35%
[1]; NaCl + 500 μM
  Uptake of α-Methyl Glucose (% based on Control Group): 78 ± 8%
[1]; mouse SGLT homolog compared with SGLT1 and SGLT2
  resistance to phlorizin: more potent than in SGLT1 and SGLT2
Hamster small intestine
  SGLT activity (α-methyl glucose uptake) resistance to phloridzin: strongly resistant
